Measurements: ChEMBL document CHEMBL2375339, “Synthesis and evaluation of 7,8-dehydrorutaecarpine derivatives as potential multifunctional agents for the treatment of Alzheimer's disease” (Eur J Med Chem, 2013)
Active and inactive are the calls of the source. No cut-off for these calls is given here.

Tests used:
Cholinesterase = Cholinesterase (Equus caballus, UniProt P81908)
Description: Inhibition of horse serum butyrylcholinesterase using butylthiocholine as substrate incubated for 15 mins followed by substrate addition measured for 2 mins by Ellman's method

[1] = target: Acetylcholinesterase (Homo sapiens) (UniProt P22303); assay: Ratio of compound activity to curcumin activity for inhibition of acetylcholinesterase (unknown origin)-induced amyloid beta(1 to 42) aggregation
[2] = target: Acetylcholinesterase (Homo sapiens) (UniProt P22303); assay: Ratio of compound activity to tacrine activity for inhibition of acetylcholinesterase (unknown origin)-induced amyloid beta(1 to 42) aggregation
[3] = target: Acetylcholinesterase (Electrophorus electricus) (UniProt O42275); assay: Inhibition of electric eel acetylcholinesterase using acetylthiocholine as substrate up to 100 uM incubated for 15 mins followed by substrate addition measured for 2 mins by Ellman's method relative to control
Acetylcholinesterase = Acetylcholinesterase (Electrophorus electricus, UniProt O42275)
Description: Inhibition of electric eel acetylcholinesterase using acetylthiocholine as substrate incubated for 15 mins followed by substrate addition measured for 2 mins by Ellman's method

cells = details: Homo sapiens, SH-SY5Y, 48 h
Description: Cytotoxicity against human SH-SY5Y cells assessed as cell viability after 48 hrs by MTT assay

[4] = target: Acetylcholinesterase (Electrophorus electricus) (UniProt O42275); assay: Ratio of tacrine IC50 to compound IC50 for electric eel acetylcholinesterase
[5] = Metal chelating activity of the compound assessed as formation of sodium complex at 20 uM after 30 mins by UV-vis spectrophotometric analysis; type: functional
[6] = target: Acetylcholinesterase (Electrophorus electricus) (UniProt O42275); assay: Mixed-type inhibition of electric eel AChE using acetylthiocholine as substrate at 0.125 to 2 nM after 15 mins by Lineweaver-Burk plot analysis
[7] = Metal chelating activity of the compound assessed as formation of calcium complex at 20 uM after 30 mins by UV-vis spectrophotometric analysis; type: functional
[8] = Metal chelating activity of the compound assessed as formation of magnesium complex at 20 uM after 30 mins by UV-vis spectrophotometric analysis; type: functional
[9] = Metal chelating activity of the compound assessed as formation of potassium complex at 20 uM after 30 mins by UV-vis spectrophotometric analysis; type: functional
[10] = Metal chelating activity of the compound assessed as formation of copper complex at 20 uM after 30 mins by UV-vis spectrophotometric analysis; type: functional
[11] = Metal chelating activity of the compound assessed as formation of iron complex at 20 uM after 30 mins by UV-vis spectrophotometric analysis; type: functional
[12] = Metal chelating activity of the compound assessed as formation of zinc complex at 20 uM after 30 mins by UV-vis spectrophotometric analysis; type: functional
[13] = Metal chelating activity of the compound assessed as formation of copper complex at 20 uM by molar ratio method; type: functional
[14] = target: Acetylcholinesterase (Electrophorus electricus) (UniProt O42275); assay: Mixed-type inhibition of electric eel AChE using acetylthiocholine as substrate at 3.125 to 50 nM after 15 mins by Lineweaver-Burk plot analysis

Chain of Acetylcholinesterase (Homo sapiens) (P22303 whole entry): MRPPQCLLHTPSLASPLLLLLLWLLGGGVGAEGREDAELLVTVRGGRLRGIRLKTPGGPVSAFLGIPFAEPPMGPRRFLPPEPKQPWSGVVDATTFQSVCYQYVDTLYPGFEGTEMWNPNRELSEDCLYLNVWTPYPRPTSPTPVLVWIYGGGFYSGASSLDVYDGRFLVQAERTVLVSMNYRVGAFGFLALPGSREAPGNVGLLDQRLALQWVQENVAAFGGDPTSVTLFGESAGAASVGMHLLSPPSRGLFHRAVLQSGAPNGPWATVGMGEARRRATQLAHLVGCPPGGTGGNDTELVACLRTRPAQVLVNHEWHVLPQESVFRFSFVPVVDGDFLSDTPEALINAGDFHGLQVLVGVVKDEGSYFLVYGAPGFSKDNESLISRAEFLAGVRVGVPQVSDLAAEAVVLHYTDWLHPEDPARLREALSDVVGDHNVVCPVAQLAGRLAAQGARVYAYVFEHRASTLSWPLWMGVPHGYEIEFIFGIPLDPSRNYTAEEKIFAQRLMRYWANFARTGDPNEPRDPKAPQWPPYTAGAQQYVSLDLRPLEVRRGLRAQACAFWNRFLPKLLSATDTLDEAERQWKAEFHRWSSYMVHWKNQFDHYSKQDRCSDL
Chain of Cholinesterase (P81908 whole entry): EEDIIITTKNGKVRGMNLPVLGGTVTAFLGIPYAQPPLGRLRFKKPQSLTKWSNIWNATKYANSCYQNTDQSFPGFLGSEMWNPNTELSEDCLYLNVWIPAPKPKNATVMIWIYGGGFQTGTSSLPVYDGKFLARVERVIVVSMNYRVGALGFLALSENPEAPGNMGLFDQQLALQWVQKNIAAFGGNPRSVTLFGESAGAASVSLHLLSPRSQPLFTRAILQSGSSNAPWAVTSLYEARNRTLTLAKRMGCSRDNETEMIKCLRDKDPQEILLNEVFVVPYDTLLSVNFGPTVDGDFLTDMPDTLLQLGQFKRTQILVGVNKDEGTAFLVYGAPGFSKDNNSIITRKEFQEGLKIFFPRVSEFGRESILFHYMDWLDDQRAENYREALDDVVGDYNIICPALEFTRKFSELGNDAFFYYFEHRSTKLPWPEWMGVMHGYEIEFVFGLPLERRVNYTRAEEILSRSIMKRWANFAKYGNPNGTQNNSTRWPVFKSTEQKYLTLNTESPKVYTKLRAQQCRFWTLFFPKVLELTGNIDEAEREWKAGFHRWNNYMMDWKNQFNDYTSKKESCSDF
Chain of Acetylcholinesterase (O42275 whole entry): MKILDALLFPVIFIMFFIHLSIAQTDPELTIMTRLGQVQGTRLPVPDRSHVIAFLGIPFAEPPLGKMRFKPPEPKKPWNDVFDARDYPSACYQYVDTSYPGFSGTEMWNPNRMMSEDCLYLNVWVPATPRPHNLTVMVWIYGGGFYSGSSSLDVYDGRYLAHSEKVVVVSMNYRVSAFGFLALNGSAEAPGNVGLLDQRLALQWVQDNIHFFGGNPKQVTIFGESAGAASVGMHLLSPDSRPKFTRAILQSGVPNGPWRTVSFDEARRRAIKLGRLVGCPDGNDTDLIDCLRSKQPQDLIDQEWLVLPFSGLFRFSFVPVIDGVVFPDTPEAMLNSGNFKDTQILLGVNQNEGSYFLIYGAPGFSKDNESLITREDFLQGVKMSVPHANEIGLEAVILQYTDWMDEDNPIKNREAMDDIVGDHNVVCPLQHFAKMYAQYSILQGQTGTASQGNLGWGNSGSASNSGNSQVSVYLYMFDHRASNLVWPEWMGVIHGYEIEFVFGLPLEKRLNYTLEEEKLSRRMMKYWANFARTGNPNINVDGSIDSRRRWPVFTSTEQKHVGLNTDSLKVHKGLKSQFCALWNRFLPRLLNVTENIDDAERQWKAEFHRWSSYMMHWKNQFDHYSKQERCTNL
Chain of Acetylcholinesterase (Electrophorus electricus) (O42275 24-633 limits assumed): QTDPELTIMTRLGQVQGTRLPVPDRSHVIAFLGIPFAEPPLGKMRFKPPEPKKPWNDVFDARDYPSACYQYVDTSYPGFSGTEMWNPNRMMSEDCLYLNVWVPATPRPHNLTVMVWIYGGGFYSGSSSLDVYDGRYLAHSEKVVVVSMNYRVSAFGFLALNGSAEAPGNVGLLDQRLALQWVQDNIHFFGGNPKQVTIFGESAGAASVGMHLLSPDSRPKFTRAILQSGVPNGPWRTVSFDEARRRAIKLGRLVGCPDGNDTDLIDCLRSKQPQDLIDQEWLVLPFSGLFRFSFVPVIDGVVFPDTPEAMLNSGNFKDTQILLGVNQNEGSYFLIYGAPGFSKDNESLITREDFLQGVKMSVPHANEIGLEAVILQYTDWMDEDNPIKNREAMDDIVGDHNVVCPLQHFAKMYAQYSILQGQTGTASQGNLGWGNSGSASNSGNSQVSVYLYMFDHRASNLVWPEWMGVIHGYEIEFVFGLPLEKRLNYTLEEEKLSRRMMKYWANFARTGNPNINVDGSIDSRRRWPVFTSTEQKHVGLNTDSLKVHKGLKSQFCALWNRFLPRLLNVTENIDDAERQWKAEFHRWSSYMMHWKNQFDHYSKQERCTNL

CN(C)CCC(=O)Nc1ccc2nc3c4[nH]c5ccccc5c4ccn3c(=O)c2c1
IC50 (Cholinesterase): 21.4 µM | Ratio [1]: 2.2 | Ratio [2]: 15.3 | inhibition [3]: 20% | IC50 (Acetylcholinesterase): 56.1 nM | IC50 (cells): 5.5 µM

O=C(CCc1ccccc1)Nc1ccc2nc3c4[nH]c5ccccc5c4ccn3c(=O)c2c1
IC50 (Cholinesterase): 26.1 µM | Ratio [1]: 2.2 | Ratio [2]: 15.3 | inhibition [3]: 20% | IC50 (Acetylcholinesterase): 108 nM

O=C(COc1cccnc1)Nc1ccc2nc3c4[nH]c5ccccc5c4ccn3c(=O)c2c1
IC50 (Cholinesterase): 7.3 µM | Ratio [1]: 2.2 | Ratio [2]: 15.3 | inhibition [3]: 20% | IC50 (Acetylcholinesterase): 3.09 nM

O=C(C[n+]1ccccc1)Nc1ccc2nc3c4[nH]c5ccccc5c4ccn3c(=O)c2c1
IC50 (Cholinesterase): 2.45 µM | Ratio [1]: 2.2 | Ratio [2]: 15.3 | inhibition [3]: 20% | Ratio IC50 [4]: 160 | IC50 (Acetylcholinesterase): 0.8 nM | IC50 (cells): > 100 µM

CN1CCN(CCC(=O)Nc2ccc3nc4c5[nH]c6ccccc6c5ccn4c(=O)c3c2)CC1
IC50 (Cholinesterase): 28.9 µM | Ratio [1]: 2.2 | Ratio [2]: 15.3 | inhibition [3]: 20% | IC50 (Acetylcholinesterase): 141 nM | IC50 (cells): 13.3 µM

CCN(CC)CCC(=O)Nc1ccc2nc3c4[nH]c5ccccc5c4ccn3c(=O)c2c1
IC50 (Cholinesterase): 28.3 µM | Ratio [1]: 2.2 | Ratio [2]: 15.3 | inhibition [3]: 20% | IC50 (Acetylcholinesterase): 64.1 nM | IC50 (cells): 12.4 µM

CCN(CC)CC(=O)Nc1ccc2nc3c4[nH]c5ccccc5c4ccn3c(=O)c2c1
IC50 (Cholinesterase): 24.1 µM | Ratio [1]: 2.2 | Ratio [2]: 15.3 | inhibition [3]: 20% | IC50 (Acetylcholinesterase): 70.4 nM | IC50 (cells): 2.3 µM

O=C(C[n+]1cccc(F)c1)Nc1ccc2nc3c4[nH]c5ccccc5c4ccn3c(=O)c2c1
IC50 (Cholinesterase): 1.86 µM | Ratio [1]: 2.2 | Activity [5]: inactive | inhibition [6]: Active | Activity [7]: inactive | Activity [8]: inactive | Activity [9]: inactive | Ratio [2]: 15.3 | inhibition [3]: 20% | Ratio IC50 [4]: 160 | Activity [10]: Active | Activity [11]: Active | IC50 (Acetylcholinesterase): 0.6 nM | Activity [12]: Active | Activity [13]: Active | IC50 (cells): > 100 µM

Cn1cc[n+](CCCC(=O)Nc2ccc3nc4c5[nH]c6ccccc6c5ccn4c(=O)c3c2)c1
IC50 (Cholinesterase): 8.2 µM | Ratio [1]: 2.2 | Ratio [2]: 15.3 | inhibition [3]: 20% | IC50 (Acetylcholinesterase): 11.7 nM

O=C(CCN1CCCC1)Nc1ccc2nc3c4[nH]c5ccccc5c4ccn3c(=O)c2c1
IC50 (Cholinesterase): 14.9 µM | Ratio [1]: 2.2 | Ratio [2]: 15.3 | inhibition [3]: 20% | IC50 (Acetylcholinesterase): 13.9 nM | inhibition [14]: Active | IC50 (cells): 21.2 µM

C[N+](C)(C)CCC(=O)Nc1ccc2nc3c4[nH]c5ccccc5c4ccn3c(=O)c2c1
IC50 (Cholinesterase): 37.2 µM | Ratio [1]: 2.2 | Ratio [2]: 15.3 | inhibition [3]: 20% | IC50 (Acetylcholinesterase): 197 nM | IC50 (cells): 29.2 µM

Cn1cc[n+](CC(=O)Nc2ccc3nc4c5[nH]c6ccccc6c5ccn4c(=O)c3c2)c1
IC50 (Cholinesterase): 7.34 µM | Ratio [1]: 2.2 | Ratio [2]: 15.3 | inhibition [3]: 20% | IC50 (Acetylcholinesterase): 8 nM | IC50 (cells): > 100 µM

O=C(CCOc1cccnc1)Nc1ccc2nc3c4[nH]c5ccccc5c4ccn3c(=O)c2c1
IC50 (Cholinesterase): 6.43 µM | Ratio [1]: 2.2 | Ratio [2]: 15.3 | inhibition [3]: 20% | IC50 (Acetylcholinesterase): 14.3 nM

O=C(CC[n+]1cccc(F)c1)Nc1ccc2nc3c4[nH]c5ccccc5c4ccn3c(=O)c2c1
IC50 (Cholinesterase): 3.49 µM | Ratio [1]: 2.2 | Ratio [2]: 15.3 | inhibition [3]: 20% | IC50 (Acetylcholinesterase): 2.1 nM | IC50 (cells): > 100 µM

C[N+]1(CCC(=O)Nc2ccc3nc4c5[nH]c6ccccc6c5ccn4c(=O)c3c2)CCCC1
IC50 (Cholinesterase): 17.1 µM | Ratio [1]: 2.2 | Ratio [2]: 15.3 | inhibition [3]: 20% | IC50 (Acetylcholinesterase): 137 nM | IC50 (cells): 19.1 µM

O=C(CNc1ccccc1)Nc1ccc2nc3c4[nH]c5ccccc5c4ccn3c(=O)c2c1
IC50 (Cholinesterase): 25.3 µM | Ratio [1]: 2.2 | Ratio [2]: 15.3 | inhibition [3]: 20% | IC50 (Acetylcholinesterase): 77.9 nM

Cn1cc[n+](CCC(=O)Nc2ccc3nc4c5[nH]c6ccccc6c5ccn4c(=O)c3c2)c1
IC50 (Cholinesterase): 7.02 µM | Ratio [1]: 2.2 | Ratio [2]: 15.3 | inhibition [3]: 20% | IC50 (Acetylcholinesterase): 9.3 nM | IC50 (cells): > 100 µM

O=C(CN1CCCC1)Nc1ccc2nc3c4[nH]c5ccccc5c4ccn3c(=O)c2c1
IC50 (Cholinesterase): 14.4 µM | Ratio [1]: 2.2 | Ratio [2]: 15.3 | inhibition [3]: 20% | IC50 (Acetylcholinesterase): 59.3 nM | IC50 (cells): 2.9 µM

O=C(CCC[n+]1ccccc1)Nc1ccc2nc3c4[nH]c5ccccc5c4ccn3c(=O)c2c1
IC50 (Cholinesterase): 4.16 µM | Ratio [1]: 2.2 | Ratio [2]: 15.3 | inhibition [3]: 20% | IC50 (Acetylcholinesterase): 3.9 nM

O=C(CN1CCCCC1)Nc1ccc2nc3c4[nH]c5ccccc5c4ccn3c(=O)c2c1
IC50 (Cholinesterase): 23.2 µM | Ratio [1]: 2.2 | Ratio [2]: 15.3 | inhibition [3]: 20% | IC50 (Acetylcholinesterase): 70 nM | IC50 (cells): 6.3 µM

O=C(CCNc1ccccc1)Nc1ccc2nc3c4[nH]c5ccccc5c4ccn3c(=O)c2c1
IC50 (Cholinesterase): 27.8 µM | Ratio [1]: 2.2 | Ratio [2]: 15.3 | inhibition [3]: 20% | IC50 (Acetylcholinesterase): 87.5 nM

O=C(CCN1CCCCC1)Nc1ccc2nc3c4[nH]c5ccccc5c4ccn3c(=O)c2c1
IC50 (Cholinesterase): 24 µM | Ratio [1]: 2.2 | Ratio [2]: 15.3 | inhibition [3]: 20% | IC50 (Acetylcholinesterase): 51 nM | IC50 (cells): 5 µM

O=C(CC[n+]1ccccc1)Nc1ccc2nc3c4[nH]c5ccccc5c4ccn3c(=O)c2c1
IC50 (Cholinesterase): 4.29 µM | Ratio [1]: 2.2 | Ratio [2]: 15.3 | inhibition [3]: 20% | IC50 (Acetylcholinesterase): 2.3 nM | IC50 (cells): > 100 µM

O=C(Cc1ccccc1)Nc1ccc2nc3c4[nH]c5ccccc5c4ccn3c(=O)c2c1
IC50 (Cholinesterase): 24.9 µM | Ratio [1]: 2.2 | Ratio [2]: 15.3 | inhibition [3]: 20% | IC50 (Acetylcholinesterase): 116 nM

O=C(CCCN1CCCC1)Nc1ccc2nc3c4[nH]c5ccccc5c4ccn3c(=O)c2c1
IC50 (Cholinesterase): 18.5 µM | Ratio [1]: 2.2 | Ratio [2]: 15.3 | inhibition [3]: 20% | IC50 (Acetylcholinesterase): 84.6 nM

CN1CCN(CC(=O)Nc2ccc3nc4c5[nH]c6ccccc6c5ccn4c(=O)c3c2)CC1
IC50 (Cholinesterase): 29.1 µM | Ratio [1]: 2.2 | Ratio [2]: 15.3 | inhibition [3]: 20% | IC50 (Acetylcholinesterase): 158 nM | IC50 (cells): 8.6 µM

O=C(CCN1CCOCC1)Nc1ccc2nc3c4[nH]c5ccccc5c4ccn3c(=O)c2c1
IC50 (Cholinesterase): 27.6 µM | Ratio [1]: 2.2 | Ratio [2]: 15.3 | inhibition [3]: 20% | IC50 (Acetylcholinesterase): 78.6 nM | IC50 (cells): 3.1 µM

CN(C)CC(=O)Nc1ccc2nc3c4[nH]c5ccccc5c4ccn3c(=O)c2c1
IC50 (Cholinesterase): 26.5 µM | Ratio [1]: 2.2 | Ratio [2]: 15.3 | inhibition [3]: 20% | IC50 (Acetylcholinesterase): 70.1 nM | IC50 (cells): 4.1 µM

O=C(CCCc1ccccc1)Nc1ccc2nc3c4[nH]c5ccccc5c4ccn3c(=O)c2c1
IC50 (Cholinesterase): 24.6 µM | Ratio [1]: 2.2 | Ratio [2]: 15.3 | inhibition [3]: 20% | IC50 (Acetylcholinesterase): 136 nM

O=C(CN1CCOCC1)Nc1ccc2nc3c4[nH]c5ccccc5c4ccn3c(=O)c2c1
IC50 (Cholinesterase): 28.5 µM | Ratio [1]: 2.2 | Ratio [2]: 15.3 | inhibition [3]: 20% | IC50 (Acetylcholinesterase): 87.8 nM | IC50 (cells): 9.9 µM

COc1cc(/C=C/C(=O)CC(=O)/C=C/c2ccc(O)c(OC)c2)ccc1O [CURCUMIN]
IC50 (cells): 35.6 µM
